Measurements from article PMC10945555, “Improving Activity of New Arylurea Agents against Multidrug-Resistant and Biofilm-Producing Staphylococcus epidermidis” (ACS Medicinal Chemistry Letters, 2024).
Converted amounts (≈) assume the structure as drawn. Like-named read-outs stand apart in the source and are kept apart here.

Legend:
[1] = system: clinical MDR Staphylococcus epidermidis isolates; experiment: MIC, broth microdilution, 81 clinical MDR strains; format: cell-based
Description: (§1) 2 Biological assay protocols
(§2) Microbiological tests were carried out under aseptic conditions in a laminar chamber of the 2nd […]
(§3) (BioTectum 1.2, Alchem Poland). The assessment of antimicrobial activity was carried out for final compounds in the form of free bases, soluble in DMSO (Merck, Germany), at the initial […]
(§4) concentration of 1 mg/mL. […]
were provided by Cayman Chemical, USA. […]
The antibacterial activity of selected compounds was also tested on a panel of 81 unrelated, multidrug -resistant clinical strains of Staphylococcus epidermidis from the own collection of the Department of Pharmaceutical Microbiology of the Jagiellonian University Medical College.
(§5) 2.2 Effect of evaluated compounds on planktonic cells
(§6) The susceptibility of three reference bacterial strains (Staphylococcus epidermidis ATCC […]
(§7) Table S1) and 81 clinical MDR S. epidermidis (Table S2) to the tested compounds was assessed by determining the MIC value (Minimal Inhibitory Concentration) by microdilution in a liquid medium in 96-well flat-bottom cell culture plates (Nest Biotechnology Scientific, USA). The antibacterial properties of the compo unds were tested in the concentration range from 50 µg/mL to 0.1 µg/mL by making a series of double dilutions of the compound in liquid Mueller -Hinton II Broth Cation Adjusted (MHB II, BBL TM, USA) according to the European Committee on […]
(§8) Antimicrobial Susceptibility Testing guidelines (EUCAST).2,3 The determinations were performed twice. The MIC50 and MIC90 values were determined for each of the tested

[2] = system: Staphylococcus aureus ATCC BAA-976; experiment: MIC, broth microdilution, MDR/BPSA reference strain; format: cell-based; conditions: ATCCBAA976; Staphylococcus aureus ATCC BAA-976; read-out: MIC MDR/BPSA
Excerpt: These strains included susceptible, multidrug-resistant, and biofilm-producing strains of S. epidermidis and S. aureus (MSSE, MDR/BPSE, and MDR/BPSA, respectively). The cornerstone antibiotic linezolid served as a positive control (Table 1). The impact of structural modifications at the aryloxy fragment and the aromatic moiety bound to the propyl linker on the inhibitory activity was initially investigated. […] Further optimization focused on evaluating the impact of the type of substituent and its position on the arylsulfonamide fragment’s activity.
as §1, §2, §3, §4
were provided by Cayman Chemical, USA.
The activity of all newly synthesized compounds was tested in vitro on a panel of selected reference strains from the American Type Culture Collection (ATCC) of Gram-positive […]
as §5, §6, §7, §8

## O=C(Nc1cccc(Cl)c1)NC1CCN(CCC(Oc2ccc(C(F)(F)F)cc2)c2cccs2)CC1 (stereo not drawn) [Compound 25]
[1]; Staphylococcus epidermidis, clinical strain 42 (Table S5), read-out: MIC
  MIC: 0.8 µg/mL (≈ 1.49 µM)
[1]; Staphylococcus epidermidis, clinical strain 43 (Table S2), read-out: MIC
  MIC: 1.6 µg/mL (≈ 2.97 µM)
[1]; Staphylococcus epidermidis, clinical strain 43 (Table S5), read-out: MIC
  MIC: 1.6 µg/mL (≈ 2.97 µM)
[1]; Staphylococcus epidermidis, clinical strain 44 (Table S2), read-out: MIC
  MIC: 1.6 µg/mL (≈ 2.97 µM)
[1]; Staphylococcus epidermidis, clinical strain 44 (Table S5), read-out: MIC
  MIC: 1.6 µg/mL (≈ 2.97 µM)
[1]; Staphylococcus epidermidis, clinical strain 45 (Table S2), read-out: MIC
  MIC: 1.6 µg/mL (≈ 2.97 µM)
[1]; Staphylococcus epidermidis, clinical strain 45 (Table S5), read-out: MIC
  MIC: 1.6 µg/mL (≈ 2.97 µM)
[1]; Staphylococcus epidermidis, clinical strain 46 (Table S2), read-out: MIC
  MIC: 1.6 µg/mL (≈ 2.97 µM)
[1]; Staphylococcus epidermidis, clinical strain 46 (Table S5), read-out: MIC
  MIC: 0.8 µg/mL (≈ 1.49 µM)
[1]; Staphylococcus epidermidis, clinical strain 47 (Table S2), read-out: MIC
  MIC: 1.6 µg/mL (≈ 2.97 µM)
[1]; Staphylococcus epidermidis, clinical strain 47 (Table S5), read-out: MIC
  MIC: 1.6 µg/mL (≈ 2.97 µM)
[1]; Staphylococcus epidermidis, clinical strain 48 (Table S2), read-out: MIC
  MIC: 1.6 µg/mL (≈ 2.97 µM)
[1]; Staphylococcus epidermidis, clinical strain 48 (Table S5), read-out: MIC
  MIC: 1.6 µg/mL (≈ 2.97 µM)
[1]; Staphylococcus epidermidis, clinical strain 49 (Table S2), read-out: MIC
  MIC: 0.1 µg/mL (≈ 0.186 µM)
[1]; Staphylococcus epidermidis, clinical strain 49 (Table S5), read-out: MIC
  MIC: 0.1 µg/mL (≈ 0.186 µM)
[1]; Staphylococcus epidermidis, clinical strain 50 (Table S2), read-out: MIC
  MIC: 3.12 µg/mL (≈ 5.81 µM)
[1]; Staphylococcus epidermidis, clinical strain 50 (Table S5), read-out: MIC
  MIC: 3.12 µg/mL (≈ 5.81 µM)
[1]; Staphylococcus epidermidis, clinical strain 51 (Table S2), read-out: MIC
  MIC: 3.12 µg/mL (≈ 5.81 µM)
[1]; Staphylococcus epidermidis, clinical strain 51 (Table S5), read-out: MIC
  MIC: 3.12 µg/mL (≈ 5.81 µM)
[1]; Staphylococcus epidermidis, clinical strain 52 (Table S2), read-out: MIC
  MIC: 3.12 µg/mL (≈ 5.81 µM)
[1]; Staphylococcus epidermidis, clinical strain 52 (Table S5), read-out: MIC
  MIC: 3.12 µg/mL (≈ 5.81 µM)
[1]; Staphylococcus epidermidis, clinical strain 53 (Table S2), read-out: MIC
  MIC: 3.12 µg/mL (≈ 5.81 µM)
[1]; Staphylococcus epidermidis, clinical strain 53 (Table S5), read-out: MIC
  MIC: 3.12 µg/mL (≈ 5.81 µM)
[1]; Staphylococcus epidermidis, clinical strain 54 (Table S2), read-out: MIC
  MIC: 0.8 µg/mL (≈ 1.49 µM)
[1]; Staphylococcus epidermidis, clinical strain 54 (Table S5), read-out: MIC
  MIC: 0.8 µg/mL (≈ 1.49 µM)
[1]; Staphylococcus epidermidis, clinical strain 55 (Table S2), read-out: MIC
  MIC: 3.12 µg/mL (≈ 5.81 µM)
[1]; Staphylococcus epidermidis, clinical strain 55 (Table S5), read-out: MIC
  MIC: 3.12 µg/mL (≈ 5.81 µM)
[1]; Staphylococcus epidermidis, clinical strain 56 (Table S2), read-out: MIC
  MIC: 1.6 µg/mL (≈ 2.97 µM)
[1]; Staphylococcus epidermidis, clinical strain 56 (Table S5), read-out: MIC
  MIC: 1.6 µg/mL (≈ 2.97 µM)
[1]; Staphylococcus epidermidis, clinical strain 57 (Table S2), read-out: MIC
  MIC: 3.12 µg/mL (≈ 5.81 µM)
[1]; Staphylococcus epidermidis, clinical strain 57 (Table S5), read-out: MIC
  MIC: 3.12 µg/mL (≈ 5.81 µM)
[1]; Staphylococcus epidermidis, clinical strain 58 (Table S2), read-out: MIC
  MIC: 0.8 µg/mL (≈ 1.49 µM)
[1]; Staphylococcus epidermidis, clinical strain 58 (Table S5), read-out: MIC
  MIC: 0.8 µg/mL (≈ 1.49 µM)
[1]; Staphylococcus epidermidis, clinical strain 59 (Table S2), read-out: MIC
  MIC: 3.12 µg/mL (≈ 5.81 µM)
[1]; Staphylococcus epidermidis, clinical strain 59 (Table S5), read-out: MIC
  MIC: 3.12 µg/mL (≈ 5.81 µM)
[1]; Staphylococcus epidermidis, clinical strain 60 (Table S2), read-out: MIC
  MIC: 3.12 µg/mL (≈ 5.81 µM)
[1]; Staphylococcus epidermidis, clinical strain 60 (Table S5), read-out: MIC
  MIC: 3.12 µg/mL (≈ 5.81 µM)
[1]; Staphylococcus epidermidis, clinical strain 61 (Table S2), read-out: MIC
  MIC: 1.6 µg/mL (≈ 2.97 µM)
[1]; Staphylococcus epidermidis, clinical strain 61 (Table S5), read-out: MIC
  MIC: 1.6 µg/mL (≈ 2.97 µM)
[1]; Staphylococcus epidermidis, clinical strain 62 (Table S2), read-out: MIC
  MIC: 1.6 µg/mL (≈ 2.97 µM)
[1]; Staphylococcus epidermidis, clinical strain 62 (Table S5), read-out: MIC
  MIC: 1.6 µg/mL (≈ 2.97 µM)
[1]; Staphylococcus epidermidis, clinical strain 63 (Table S2), read-out: MIC
  MIC: 1.6 µg/mL (≈ 2.97 µM)
[1]; Staphylococcus epidermidis, clinical strain 63 (Table S5), read-out: MIC
  MIC: 1.6 µg/mL (≈ 2.97 µM)
[1]; Staphylococcus epidermidis, clinical strain 64 (Table S2), read-out: MIC
  MIC: 3.12 µg/mL (≈ 5.81 µM)
[1]; Staphylococcus epidermidis, clinical strain 64 (Table S5), read-out: MIC
  MIC: 3.12 µg/mL (≈ 5.81 µM)
[1]; Staphylococcus epidermidis, clinical strain 65 (Table S2), read-out: MIC
  MIC: 3.12 µg/mL (≈ 5.81 µM)
[1]; Staphylococcus epidermidis, clinical strain 65 (Table S5), read-out: MIC
  MIC: 3.12 µg/mL (≈ 5.81 µM)
[1]; Staphylococcus epidermidis, clinical strain 66 (Table S2), read-out: MIC
  MIC: 1.6 µg/mL (≈ 2.97 µM)
[1]; Staphylococcus epidermidis, clinical strain 66 (Table S5), read-out: MIC
  MIC: 1.6 µg/mL (≈ 2.97 µM)
[1]; Staphylococcus epidermidis, clinical strain 67 (Table S2), read-out: MIC
  MIC: 3.12 µg/mL (≈ 5.81 µM)
[1]; Staphylococcus epidermidis, clinical strain 67 (Table S5), read-out: MIC
  MIC: 3.12 µg/mL (≈ 5.81 µM)
[1]; Staphylococcus epidermidis, clinical strain 68 (Table S2), read-out: MIC
  MIC: 3.12 µg/mL (≈ 5.81 µM)
[1]; Staphylococcus epidermidis, clinical strain 68 (Table S5), read-out: MIC
  MIC: 3.12 µg/mL (≈ 5.81 µM)
[1]; Staphylococcus epidermidis, clinical strain 69 (Table S2), read-out: MIC
  MIC: 1.6 µg/mL (≈ 2.97 µM)
[1]; Staphylococcus epidermidis, clinical strain 69 (Table S5), read-out: MIC
  MIC: 1.6 µg/mL (≈ 2.97 µM)
[1]; Staphylococcus epidermidis, clinical strain 70 (Table S2), read-out: MIC
  MIC: 3.12 µg/mL (≈ 5.81 µM)
[1]; Staphylococcus epidermidis, clinical strain 70 (Table S5), read-out: MIC
  MIC: 3.12 µg/mL (≈ 5.81 µM)
[1]; Staphylococcus epidermidis, clinical strain 71 (Table S2), read-out: MIC
  MIC: 1.6 µg/mL (≈ 2.97 µM)
[1]; Staphylococcus epidermidis, clinical strain 71 (Table S5), read-out: MIC
  MIC: 1.6 µg/mL (≈ 2.97 µM)
[1]; Staphylococcus epidermidis, clinical strain 72 (Table S2), read-out: MIC
  MIC: 3.12 µg/mL (≈ 5.81 µM)
[1]; Staphylococcus epidermidis, clinical strain 72 (Table S5), read-out: MIC
  MIC: 3.12 µg/mL (≈ 5.81 µM)
[1]; Staphylococcus epidermidis, clinical strain 73 (Table S2), read-out: MIC
  MIC: 0.4 µg/mL (≈ 0.743 µM)
[1]; Staphylococcus epidermidis, clinical strain 73 (Table S5), read-out: MIC
  MIC: 0.4 µg/mL (≈ 0.743 µM)
[1]; Staphylococcus epidermidis, clinical strain 74 (Table S2), read-out: MIC
  MIC: 3.12 µg/mL (≈ 5.81 µM)
[1]; Staphylococcus epidermidis, clinical strain 74 (Table S5), read-out: MIC
  MIC: 3.12 µg/mL (≈ 5.81 µM)
[1]; Staphylococcus epidermidis, clinical strain 75 (Table S2), read-out: MIC
  MIC: 3.12 µg/mL (≈ 5.81 µM)
[1]; Staphylococcus epidermidis, clinical strain 75 (Table S5), read-out: MIC
  MIC: 3.12 µg/mL (≈ 5.81 µM)
[1]; Staphylococcus epidermidis, clinical strain 76 (Table S2), read-out: MIC
  MIC: 1.6 µg/mL (≈ 2.97 µM)
[1]; Staphylococcus epidermidis, clinical strain 76 (Table S5), read-out: MIC
  MIC: 1.6 µg/mL (≈ 2.97 µM)
[1]; Staphylococcus epidermidis, clinical strain 77 (Table S2), read-out: MIC
  MIC: 3.12 µg/mL (≈ 5.81 µM)
[1]; Staphylococcus epidermidis, clinical strain 77 (Table S5), read-out: MIC
  MIC: 3.12 µg/mL (≈ 5.81 µM)
[1]; Staphylococcus epidermidis, clinical strain 78 (Table S2), read-out: MIC
  MIC: 1.6 µg/mL (≈ 2.97 µM)
[1]; Staphylococcus epidermidis, clinical strain 78 (Table S5), read-out: MIC
  MIC: 1.6 µg/mL (≈ 2.97 µM)
[1]; Staphylococcus epidermidis, clinical strain 79 (Table S2), read-out: MIC
  MIC: 0.4 µg/mL (≈ 0.743 µM)
[1]; Staphylococcus epidermidis, clinical strain 79 (Table S5), read-out: MIC
  MIC: 0.4 µg/mL (≈ 0.743 µM)
[1]; Staphylococcus epidermidis, clinical strain 80 (Table S2), read-out: MIC
  MIC: 3.12 µg/mL (≈ 5.81 µM)
[1]; Staphylococcus epidermidis, clinical strain 80 (Table S5), read-out: MIC
  MIC: 3.12 µg/mL (≈ 5.81 µM)
[1]; Staphylococcus epidermidis, clinical strain 81 (Table S2), read-out: MIC
  MIC: 0.2 µg/mL (≈ 0.372 µM)
[1]; Staphylococcus epidermidis, clinical strain 81 (Table S5), read-out: MIC
  MIC: 0.2 µg/mL (≈ 0.372 µM)
[1]; Staphylococcus epidermidis, mean of MIC values against clinical MDR-SE isolates, read-out: mean MIC
  MIC: 1.76 µg/mL (≈ 3.27 µM)
[1]; Staphylococcus epidermidis, 81 clinical strains, concentration inhibiting growth of 50% clinical isolates
  MIC50: 1.6 µg/mL (≈ 2.97 µM)
[1]; Staphylococcus epidermidis, 81 clinical strains, concentration inhibiting growth of 90% of clinical isolates
  MIC90: 3.12 µg/mL (≈ 5.81 µM)
[1]; all reference and clinical MDR S. epidermidis strains
  category according to EUCAST clinical breakpoints for linezolid: within the susceptible category
[2]
  MIC: 1.6 µg/mL (≈ 2.97 µM)
